Results on 1 substance are retold here after patent publication US20080268069A1, “Mixture having effect of improving insulin resistance, effect of suppressing body weight gain, and effect of preventing and improving fatty liver” (Ryusendo Co., Ltd., priority 2007, published 2008).

Entries after “also recorded” stand apart in the source; their conditions may differ.

Format in all cases: in vivo
The test system of assay [1] is Zucker fa/fa rat. Briefly: Glucose tolerance test. How it is done:
(§1) The Zucker fa/fa rat is polyphagous and used as an obesity model and also as a hyperinsulinemia or insulin resistance model.
(§2) Significant tests were carried out using the t test. Two-tailed tests were used for the V group, with significance expressed at p<0.05 (*) and p<0.01 (**).
Glucose tolerance tests were carried out in each group of rats at the 2nd week (9-week old) and 4th (11-week old) week after the start of experiment. After 16 hours of fasting, each group of rats was forcedly allowed to ingest 2 g/kg body weight of D-glucose, followed by measuring blood glucose level with time.

Assay [2] relates to Zucker fa/fa rat. Briefly: Serum parameters and blood glucose level at autopsy. The settings on record: compared to V group. How it is done:
as §1
(§3) Dietary intake, body weight gain, liver weight, kidney weight, peritesticular fat weight, glucose tolerance test, blood glucose level, serum insulin, total serum cholesterol, serum triglyceride, serum free fatty acid, and serum leptin.
as §2
At autopsy, serum insulin and blood glucose level were measured.

The subject of assay [3] is Zucker fa/fa rat. Nature of the assay: 28-day feeding study: dietary intake, body weight gain, organ weights. Conditions: compared to V group; for suppression of body weight gain: feeding period of 28 days. The method, then: as §1
Eight-week old Zucker fa/fa (Obesity model)
Vehicle (V) fa/fa Basic diet
Onion (O) fa/fa Basic diet+5% Onion
as §3, §2

As to “trivalent chromium-nicotinic acid complex [Cr]”, in the assay on Zucker fa/fa rat [1] (2nd and 4th week, after 2 g/kg D-glucose, no time point stated, compared to V group), the “blood glucose level in glucose tolerance test” value is given as “no significant difference”. Also, the “effect of improving insulin resistance” value in the assay on Zucker fa/fa rat [1] (conclusion from glucose tolerance test and serum insulin, 2 to 4 weeks) was “neither the trivalent chromium-nicotinic acid complex alone nor the onion extract alone had the effect”. In the assay with Zucker fa/fa rat [2] (at autopsy), the blood glucose level entry is recorded as “no significant difference” and the serum insulin content result is listed as “no significant difference”. Moreover, in the assay with Zucker fa/fa rat [2], the “serum free fatty acid (FFA)” value was “No significant difference”, the serum leptin result is listed as “No significant difference”, the “serum triglyceride (TG)” value is reported as “no significant difference; also recorded: tendency of reduction” and the “total serum cholesterol (TC)” value is reported as “No significant difference”. Moreover, in the assay with Zucker fa/fa rat [3] (28 days feeding), the weight of kidney result is listed as “no significant difference” and the “weight of peritesticular fat” value is listed as “no significant difference”. Moreover, in the assay on Zucker fa/fa rat [3], the “suppression of body weight gain” value was “no significant difference”. Besides, the “suppression of body weight gain” value with Zucker fa/fa rat [3] (listed as trivalent chromium-nicotinic acid complex) is “neither the trivalent chromium-nicotinic acid complex alone nor the onion extract alone had the effect”.
